Data: paper PMC11157767 (Molecular Cancer, 2024)

Test system: TFG-MET allograft tumors
Test: RNA-sequencing, differential expression and GSEA of TFG-MET allograft tumors
Type: in vivo, mouse
Description: Error bars display standard error of mean, statistical significance was determined using t-test analysis. (****;p<0.0001, ***;p<0.001, **;p<0.01, *;p<0.05). […] Each dot represents an individual replicate. Error bars display standard error of the mean.
Each dot represents one gene.

[1] = GSEA CAP vs Veh, C5 GO CC, padj 0.0837675
[2] = GSEA CAP vs Veh, C5 GO CC, padj 0.118081
[3] = GSEA CAP vs Veh, C5 GO CC, padj 0.15025
[4] = GSEA CAP vs Veh, C5 GO CC, padj 0.172143
[5] = GSEA CAP vs Veh, C5 GO CC, padj 0.185573
[6] = GSEA CAP vs Veh, C5 GO CC, padj 0.189724
[7] = GSEA CAP vs Veh, C5 GO CC, padj 0.205885
[8] = GSEA CAP vs Veh, C5 GO CC, padj 0.207988
[9] = capmatinib vs vehicle, PD cohort

CNC(=O)c1ccc(-c2cnc3ncc(Cc4ccc5ncccc5c4)n3n2)cc1F [Capmatinib]
NES GOCC_TRIGLYCERIDE_RICH_PLASMA_LIPOPROTEIN_PARTICLE [1]: 1.6067 | NES GOCC_VESICLE_TETHERING_COMPLEX [1]: 1.4789 | NES GOCC_IMMUNOLOGICAL_SYNAPSE (GSEA CAP vs Veh, C5 GO CC, padj 0.0851978): 1.513 | NES GOCC_TOR_COMPLEX (GSEA CAP vs Veh, C5 GO CC, padj 0.0863609): -1.558 | NES GOCC_POTASSIUM_CHANNEL_COMPLEX (GSEA CAP vs Veh, C5 GO CC, padj 0.0898434): 1.3322 | NES GOCC_PHOTORECEPTOR_OUTER_SEGMENT (GSEA CAP vs Veh, C5 GO CC, padj 0.0912598): 1.398 | NES GOCC_NON_MOTILE_CILIUM (GSEA CAP vs Veh, C5 GO CC, padj 0.0963826): 1.327 | NES GOCC_COLLAGEN_TRIMER (GSEA CAP vs Veh, C5 GO CC, padj 0.100203): 1.361 | NES GOCC_CYCLIN_DEPENDENT_PROTEIN_KINASE_HOLOENZYME_COMPLEX (GSEA CAP vs Veh, C5 GO CC, padj 0.101289): -1.485 | NES GOCC_PHAGOPHORE_ASSEMBLY_SITE_MEMBRANE (GSEA CAP vs Veh, C5 GO CC, padj 0.101632): 1.59 | NES GOCC_MICROTUBULE_END (GSEA CAP vs Veh, C5 GO CC, padj 0.104588): -1.488 | NES GOCC_MRNA_CLEAVAGE_AND_POLYADENYLATION_SPECIFICITY_FACTOR_COMPLEX (GSEA CAP vs Veh, C5 GO CC, padj 0.106777): -1.514 | NES GOCC_PERICENTRIOLAR_MATERIAL (GSEA CAP vs Veh, C5 GO CC, padj 0.107544): -1.541 | NES GOCC_SPERM_MIDPIECE (GSEA CAP vs Veh, C5 GO CC, padj 0.11014): 1.543 | NES GOCC_FILAMENTOUS_ACTIN (GSEA CAP vs Veh, C5 GO CC, padj 0.113803): -1.495 | NES GOCC_CONDENSED_NUCLEAR_CHROMOSOME (GSEA CAP vs Veh, C5 GO CC, padj 0.117551): -1.436 | NES GOCC_ENDOPLASMIC_RETICULUM_EXIT_SITE [2]: -1.477 | NES GOCC_MITOTIC_SPINDLE [2]: -1.3459 | NES GOCC_TERTIARY_GRANULE_LUMEN [2]: 1.448 | NES GOCC_MICROTUBULE_ORGANIZING_CENTER (GSEA CAP vs Veh, C5 GO CC, padj 0.119924): -1.201 | NES GOCC_ESC_E_Z_COMPLEX (GSEA CAP vs Veh, C5 GO CC, padj 0.125326): -1.503 | NES GOCC_MITOCHONDRIAL_PROTEIN_CONTAINING_COMPLEX (GSEA CAP vs Veh, C5 GO CC, padj 0.144325): 1.2339 | NES GOCC_MICROBODY_LUMEN [3]: 1.378 | NES GOCC_PLATELET_DENSE_GRANULE [3]: 1.446 | NES GOCC_POSTSYNAPTIC_CYTOSOL [3]: -1.504 | NES GOCC_DNA_HELICASE_COMPLEX (GSEA CAP vs Veh, C5 GO CC, padj 0.150544): -1.462 | NES GOCC_H4_H2A_HISTONE_ACETYLTRANSFERASE_COMPLEX (GSEA CAP vs Veh, C5 GO CC, padj 0.153451): -1.479 | NES GOCC_T_TUBULE (GSEA CAP vs Veh, C5 GO CC, padj 0.166785): 1.333 | NES GOCC_CELL_DIVISION_SITE [4]: -1.364 | NES GOCC_CILIARY_MEMBRANE [4]: 1.297 | NES GOCC_NUCLEAR_INNER_MEMBRANE [4]: -1.39 | NES GOCC_SPERM_PRINCIPAL_PIECE [4]: 1.449 | NES GOCC_PROTEIN_KINASE_COMPLEX (GSEA CAP vs Veh, C5 GO CC, padj 0.174487): -1.355 | NES GOCC_SARCOPLASMIC_RETICULUM_MEMBRANE (GSEA CAP vs Veh, C5 GO CC, padj 0.176238): 1.347 | NES GOCC_TRANSCRIPTION_FACTOR_TFIID_COMPLEX (GSEA CAP vs Veh, C5 GO CC, padj 0.181046): -1.393 | NES GOCC_ENDOSOME_LUMEN [5]: 1.406 | NES GOCC_SPECIFIC_GRANULE_LUMEN [5]: 1.358 | NES GOCC_CLATHRIN_ADAPTOR_COMPLEX [6]: 1.366 | NES GOCC_MITOTIC_SPINDLE_POLE [6]: -1.382 | NES GOCC_MEMBRANE_MICRODOMAIN (GSEA CAP vs Veh, C5 GO CC, padj 0.192589): 1.19 | NES GOCC_CELL_BODY_MEMBRANE (GSEA CAP vs Veh, C5 GO CC, padj 0.197703): 1.35 | NES GOCC_VACUOLAR_PROTON_TRANSPORTING_V_TYPE_ATPASE_COMPLEX (GSEA CAP vs Veh, C5 GO CC, padj 0.198626): 1.413 | NES GOCC_DENDRITIC_SHAFT [7]: 1.333 | NES GOCC_NUCLEAR_OUTER_MEMBRANE [7]: -1.409 | NES GOCC_SAGA_TYPE_COMPLEX (GSEA CAP vs Veh, C5 GO CC, padj 0.206418): -1.409 | NES GOCC_CLATHRIN_COAT [8]: 1.308 | NES GOCC_PHOTORECEPTOR_INNER_SEGMENT [8]: 1.275 | NES GOCC_INTEGRAL_COMPONENT_OF_SYNAPTIC_VESICLE_MEMBRANE (GSEA CAP vs Veh, C5 GO CC, padj 0.210702): 1.319 | expression of Mapk signature genes in tumors (RNA-sequencing of treated allograft tumors): significant downregulation | GSEA NES, PID_Atm_pathway [9]: -1.751 | GSEA NES, PID_Atr_pathway [9]: -2.041 | expression of genes involved in the DNA repair machinery (capmatinib-treated vs vehicle tumors, PD cohort): downregulated
